In patent publication US20240300976A1, “COMPOUNDS AS MODULATORS OF ENDOPLASMIC RETICULUM AMINOPEPTIDASE 1 (ERAP1)” (GREY WOLF THERAPEUTICS LIMITED, priority 2020, published 2024):

Target: T1, ERAP1 (Homo sapiens, UniProt Q9NZ08)
T1 construct: Purified ERAP1(37-941)-10His (ERAP1); 10His (C)
Experiment: ERAP1 mediated hydrolysis of an amide substrate (10-mer inhibition assay), biochemical system
Conditions: 10-mer substrate, incubated at 23° C. for 1 h, excitation 279 nm and emission 355 nm; read-out: IC50 vs Decapeptide WRVYEKC(Dnp)ALK-acid (where Dnp is Dinitrophenyl maleimide) (10-mer)
Description: This peptide has minimal fluorescence as the N-terminal tryptophan residue's fluorescence is quenched by the dinitrophenol (DNP) residue within the peptide. However, as ERAP1 hydrolyses the N-terminal amide bond and tryptophan is released this internal quenching is lost and the reaction is monitored by the increase in tryptophan fluorescence over the course of the assay. For the purposes of this application this assay is referred to as the “1 Omer inhibition assay” and compound potencies are calculated and expressed as 1050 as would be familiar to a person skilled in the art.
Biological Assay 1: ERAP1 Mediated Hydrolysis of an Amide Substrate Measured in a Biochemical System
• 1× Assay buffer (AB): 25 mM Bis-tris propane, 0.05% w/v Hydroxypropylmethylcellulose pH 7.75 made with Optima grade water • Decapeptide WRVYEKC(Dnp)ALK-acid (where Dnp is Dinitrophenyl maleimide) (10-mer) • L-Leucine 7-amido-4-methylcoumarin (L-AMC) • Purified ERAP1(37-941)-10His (ERAP1)
12.5 μL ERAP1 enzyme in 1×AB was combined with 250 nL test compound in DMSO. 12.5 μL of either 240 μM L-AMC in 1×AB or 100 μM 10-mer in 1×AB was added to the reaction and incubated at 23° C. for 1 h. For detection, plates were read at excitation 365 nm and emission 442 nm (L-AMC) or excitation 279 nm and emission 355 nm (10-mer). Compound IC50 was determined using a 4-parameter equation.

T1 sequence (Q9NZ08 37-941): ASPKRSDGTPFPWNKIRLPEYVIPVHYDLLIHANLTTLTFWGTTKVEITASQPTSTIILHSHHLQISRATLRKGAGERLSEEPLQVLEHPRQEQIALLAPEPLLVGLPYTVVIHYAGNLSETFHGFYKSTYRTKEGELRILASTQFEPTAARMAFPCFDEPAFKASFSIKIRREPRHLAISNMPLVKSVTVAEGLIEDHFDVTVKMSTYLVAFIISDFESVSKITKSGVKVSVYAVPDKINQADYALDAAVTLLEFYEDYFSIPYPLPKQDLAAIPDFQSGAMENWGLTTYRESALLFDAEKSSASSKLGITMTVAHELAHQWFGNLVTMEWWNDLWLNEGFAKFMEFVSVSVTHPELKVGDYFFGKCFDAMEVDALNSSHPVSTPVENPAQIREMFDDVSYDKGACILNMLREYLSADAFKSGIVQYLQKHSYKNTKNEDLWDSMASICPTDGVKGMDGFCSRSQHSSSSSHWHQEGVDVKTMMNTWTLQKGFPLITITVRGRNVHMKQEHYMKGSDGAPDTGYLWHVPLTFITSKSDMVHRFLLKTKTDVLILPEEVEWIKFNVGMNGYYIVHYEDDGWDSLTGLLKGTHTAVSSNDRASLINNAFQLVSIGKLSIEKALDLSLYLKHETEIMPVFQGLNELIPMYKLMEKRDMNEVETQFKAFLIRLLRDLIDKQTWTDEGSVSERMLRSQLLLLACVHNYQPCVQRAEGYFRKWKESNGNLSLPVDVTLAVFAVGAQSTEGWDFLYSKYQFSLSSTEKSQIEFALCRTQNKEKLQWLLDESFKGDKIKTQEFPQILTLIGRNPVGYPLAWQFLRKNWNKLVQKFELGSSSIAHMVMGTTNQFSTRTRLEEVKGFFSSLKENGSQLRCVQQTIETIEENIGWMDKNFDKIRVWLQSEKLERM

For “3-chloro-2-(1H-tetrazol-1-yl)-7,8,9,9a,10,11,12,13-octahydro-6H, 20H-dibenzo[b,f]pyrido[1,2-h][1]oxa[4]thia[5,8]diazacyclotridecine-17-carboxylic acid 19,19-dioxide [Example 54]”, the IC50 was < 250 nM.

`O=C(O)c1ccc2c(c1)S(=O)(=O)Nc1cc(C(F)(F)F)ccc1N1CCCCC1C/C=C/CO2` (racemic) [Example 1, (E)-2-(trifluoromethyl)-7,8,9,9a,10,13-hexahydro-6H, 20H-dibenzo[b,f]pyrido[1,2-h][1]oxa[4]thia[5,8]diazacyclotridecine-17-carboxylic acid 19,19-dioxide] was tested, and the IC50 was < 250 nM.

`N#Cc1ccc2c(c1)NS(=O)(=O)c1cc(C(=O)O)ccc1OCCC1CCCCN21` (racemic) [Example 2, 2-cyano-7,8,9,9a,10,11-hexahydro-6H, 18H-dibenzo[b,f]pyrido[1,2-h][1]oxa[4]thia[5,8]diazacycloundecine-15-carboxylic acid 17,17-dioxide] was tested, and the IC50 was > 1000 nM.

For `N#Cc1ccc2c(c1)NS(=O)(=O)c1cc(C(=O)O)ccc1OCC1CCCCN21` (racemic) [Example 3, 8-cyano-12,13,14,15,15a,16-hexahydro-6H-dibenzo[b,f]pyrido[1,2 h][1,4,5,8]oxathiadiazecine-3-carboxylic acid 5,5-dioxide], the IC50 was < 250 nM.

With `N#Cc1ccc2c(c1)NS(=O)(=O)c1cc(C(=O)O)ccc1OCCCCC1CCCCN21` (racemic) [Example 4, 2-cyano-7,8,9,9a,10,11,12,13-octahydro-6H,20H-dibenzo[b,f]pyrido[1,2-h][1]oxa[4]thia[5,8]diazacyclotridecine-17-carboxylic acid 19,19-dioxide] the IC50 was < 250 nM.

For `N#Cc1cc2c(cc1Cl)N1CCCCC1COc1ccc(C(=O)O)cc1S(=O)(=O)N2` (racemic) [Example 14, 9-chloro-8-cyano-12,13,14,15,15a,16-hexahydro-6H-dibenzo[b,f]pyrido[1,2-h][1,4,5,8]oxathiadiazecine-3-carboxylic acid 5,5-dioxide], the IC50 was < 250 nM.

For `N#Cc1ccc2c(c1)NS(=O)(=O)c1cc(C(=O)O)ccc1OC/C=C/CC1CCCCN21` (racemic) [Example 15, (E)-2-cyano-7,8,9,9a,10,13-hexahydro-6H, 20H-dibenzo[b,f]pyrido[1,2-h][1]oxa[4]thia[5,8]diazacyclotridecine-17-carboxylic acid 19,19-dioxide], the IC50 was < 250 nM.

`CS(=O)(=O)c1ccc2c(c1)NS(=O)(=O)c1cc(C(=O)O)ccc1OCC1CCCCN21` (racemic) [Example 18, 8-(methylsulfonyl)-12,13,14,15,15a,16-hexahydro-6H-dibenzo[b,f]pyrido[1,2-h][1,4,5,8]oxathiadiazecine-3-carboxylic acid 5,5-dioxide] showed an IC50 of 250 to 1000 nM.

With `N#Cc1cc2c(cc1Cl)N1CCCCC1CCCOc1ccc(C(=O)O)cc1S(=O)(=O)N2` (racemic) [Example 21, 3-chloro-2-cyano-6,7,8,9,9a,10,11,12-octahydro-19H-dibenzo[b,f]pyrido[1,2-h][1]oxa[4]thia[5,8]diazacyclododecine-16-carboxylic acid 18,18-dioxide] the IC50 was < 250 nM.

For `N#Cc1cc2c(cc1Cl)N1CCCCC1CCCCOc1ccc(C(=O)O)cc1S(=O)(=O)N2` (racemic) [Example 22, 3-chloro-2-cyano-7,8,9,9a,10,11,12,13-octahydro-6H, 20H-dibenzo[b,f]pyrido[1,2-h][1]oxa[4]thia[5,8]diazacyclotridecine-17-carboxylic acid 19,19-dioxide], the IC50 was < 250 nM.

`CS(=O)(=O)c1ccc2c(c1)NS(=O)(=O)c1cc(C(=O)O)ccc1OCCCCC1CCCCN21` (racemic) [Example 23, 2-(methylsulfonyl)-7,8,9,9a,10,11,12,13-octahydro-6H, 20H-dibenzo[b,f]pyrido[1,2-h][1]oxa[4]thia[5,8]diazacyclotridecine-17-carboxylic acid 19,19-dioxide] showed an IC50 of 250 to 1000 nM.

`N#Cc1cc2c(cc1F)N1CCCCC1COc1ccc(C(=O)O)cc1S(=O)(=O)N2` (racemic) [Example 24, 8-cyano-9-fluoro-12,13,14,15,15a,16-hexahydro-6H-dibenzo[b,f]pyrido[1,2-h][1,4,5,8]oxathiadiazecine-3-carboxylic acid 5,5-dioxide] was tested, and the IC50 was < 250 nM.

For `CS(=O)(=O)c1cc2c(cc1F)N1CCCCC1COc1ccc(C(=O)O)cc1S(=O)(=O)N2` (racemic) [Example 25, 9-fluoro-8-(methylsulfonyl)-12,13,14,15,15a,16-hexahydro-6H-dibenzo[b,f]pyrido[1,2-h][1,4,5,8]oxathiadiazecine-3-carboxylic acid 5,5-dioxide], the IC50 was < 250 nM.

For `N#Cc1cc2c(cc1F)N1CCCCC1CCCCOc1ccc(C(=O)O)cc1S(=O)(=O)N2` (racemic) [Example 28, 2-cyano-3-fluoro-7,8,9,9a,10,11,12,13-octahydro-6H,20H-dibenzo[b,f]pyrido[1,2-h][1]oxa[4]thia[5,8]diazacyclotridecine-17-carboxylic acid 19,19-dioxide], the IC50 was < 250 nM.

With `N#Cc1cc2c(cc1F)N1CCCCC1CCCOc1ccc(C(=O)O)cc1S(=O)(=O)N2` (racemic) [Example 29, 2-cyano-3-fluoro-6,7,8,9,9a,10,11,12-octahydro-19H-dibenzo[b,f]pyrido[1,2-h][1]oxa[4]thia[5,8]diazacyclododecine-16-carboxylic acid 18,18-dioxide] the IC50 was < 250 nM.

With `N#Cc1cc2c(cc1Cl)N1CCCCC1C/C=C/COc1ccc(C(=O)O)cc1S(=O)(=O)N2` (racemic) [Example 30, (E)-3-chloro-2-cyano-7,8,9,9a,10,13-hexa hydro-6H, 20H-dibenzo[b,f]pyrido[1,2-h][1]oxa[4]thia[5,8]diazacyclotridecine-17-carboxylic acid 19,19-dioxide] the IC50 was < 250 nM.

In the case of `CS(=O)(=O)c1cc2c(cc1F)N1CCCCC1CCCCOc1ccc(C(=O)O)cc1S(=O)(=O)N2` (racemic) [Example 31, 3-fluoro-2-(methylsulfonyl)-7,8,9,9a,10,11,12,13-octahydro-6H, 20H-dibenzo[b,f]pyrido[1,2-h][1]oxa[4]thia[5,8]diazacyclotridecine-17-carboxylic acid 19,19-dioxide], the IC50 is reported as < 250 nM.

In the case of `CN1c2cc(S(C)(=O)=O)ccc2N2CCCCC2CCCOc2ccc(C(=O)O)cc2S1(=O)=O` (racemic) [Example 34, 19-methyl-2-(methylsulfonyl)-6,7,8,9,9a,10,11,12-octahydro-19H-dibenzo[b,f]pyrido[1,2-h][1]oxa[4]thia[5,8]diazacyclododecine-16-carboxylic acid 18,18-dioxide], the IC50 is reported as < 250 nM.

`N#Cc1cc2c(cc1Cl)N1CCCCC1/C=C/COc1ccc(C(=O)O)cc1S(=O)(=O)N2` (racemic) [Example 35, (E)-3-chloro-2-cyano-6,7,8,9,9a,12-hexahydro-19H-dibenzo[b,f]pyrido[1,2-h][1]oxa[4]thia[5,8]diazacyclododecine-16-carboxylic acid 18,18-dioxide] was tested, and the IC50 was < 250 nM.

For `CS(=O)(=O)c1ccc2c(c1)NS(=O)(=O)c1cc(C(=O)O)ccc1OCCCC1CCCCN21` (racemic) [Example 36, 2-(methylsulfonyl)-6,7,8,9,9a,10,11,12-octahydro-19H-dibenzo[b,f]pyrido[1,2-h][1]oxa[4]thia[5,8]diazacyclododecine-16-carboxylic acid 18,18-dioxide], the IC50 was < 250 nM.

`CS(=O)(=O)c1cc2c(cc1F)N1CCCCC1CCCOc1ccc(C(=O)O)cc1S(=O)(=O)N2` (racemic) [Example 51, 3-fluoro-2-(methylsulfonyl)-6,7,8,9,9a,10,11,12-octahydro-19H-dibenzo[b,f]pyrido[1,2-h][1]oxa[4]thia[5,8]diazacyclododecine-16-carboxylic acid 18,18-dioxide] showed an IC50 of 250 to 1000 nM.

With `N#Cc1cc2c(cc1Cl)N1CCCCC1COCCOc1ccc(C(=O)O)cc1S(=O)(=O)N2` (racemic) [Example 65, 3-chloro-2-cyano-6,7,8,9,9a,10,12,13-octahydro-20H-dibenzo[e,i]pyrido[1,2-k][1,4]dioxa[7]thia[8,11]diazacyclotridecine-17-carboxylic acid 19,19-dioxide] the IC50 was < 250 nM.

`N#Cc1cc2c(cc1Cl)N1CCCCC1CNCCOc1ccc(C(=O)O)cc1S(=O)(=O)N2` (racemic) [Example 66, 3-chloro-2-cyano-7,8,9,9a,10,11,12,13-octahydro-6H, 20H-dibenzo[b,f]pyrido[1,2-h][1]oxa[4]thia[5,8,11]triazacyclotridecine-17-carboxylic acid 19,19-dioxide] was tested, and the IC50 was > 1000 nM.

In the case of `N#Cc1ccc2c(c1)NS(=O)(=O)c1cc(C(=O)O)ccc1OCCC1CCCCN21` (single isomer, unassigned) [Example 6, 2-cyano-7,8,9,9a,10,11-hexahydro-6H, 18H-dibenzo[b,f]pyrido[1,2-h][1]oxa[4]thia[5,8]diazacycloundecine-15-carboxylic acid 17,17-dioxide], the IC50 is reported as > 1000 nM.

For `N#Cc1ccc2c(c1)NS(=O)(=O)c1cc(C(=O)O)ccc1OCCC1CCCCN21` (single isomer, unassigned) [Example 7, 2-cyano-7,8,9,9a,10,11-hexahydro-6H, 18H-dibenzo[b,f]pyrido[1,2-h][1]oxa[4]thia[5,8]diazacycloundecine-15-carboxylic acid 17,17-dioxide], the IC50 was > 1000 nM.
